Experimental data reported in patent US20060069132A1, “Azolecarboxamide herbicides” (priority 2004, published 2006).

Assays:
[1] = system: rice; assay: Test B pre-/postemergence herbicide test; assay type: in vivo, Oryza sativa; conditions: for plant injury at 125 g/ha: read-out: Rice plant response rating (0 to 100 scale)
Procedure, shortened: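 Response was scored visually 13 to 15 days after treatment against untreated greenhouse controls, 0 meaning no effect and 100 complete control. Formulations (solvent mixture plus surfactant) went onto soil after planting, onto foliage of 1- to 4-leaf plants, and onto 2-leaf plants in a flooded paddy set including rice and barnyardgrass.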

[2] = system: Surinam grass; assay: Test C pre-/postemergence herbicide test; assay type: in vivo, Urochloa decumbens
Procedure, shortened: (§1)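 Pre/post spray; non-phytotoxic solvent + surfactant. Post-timing 1–4 leaves, 2–18 cm. Read-out: visual % control vs untreated, day 12–14, greenhouse.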

[3] = system: large crabgrass; assay: Test C pre-/postemergence herbicide test; assay type: in vivo, Digitaria sanguinalis
Procedure, shortened: as §1

[4] = system: goosegrass; assay: Test C pre-/postemergence herbicide test; assay type: in vivo, Eleusine indica
Procedure, shortened: as §1

[5] = system: johnsongrass; assay: Test C pre-/postemergence herbicide test; assay type: in vivo, Sorghum halepense
Procedure, shortened: as §1

[6] = system: kochia; assay: Test C pre-/postemergence herbicide test; assay type: in vivo, Kochia scoparia
Procedure, shortened: as §1

[7] = system: pigweed; assay: Test C pre-/postemergence herbicide test; assay type: in vivo, Amaranthus retroflexus
Procedure, shortened: as §1

[8] = system: soybean; assay: Test C pre-/postemergence herbicide test; assay type: in vivo, Glycine max
Procedure, shortened: as §1

[9] = system: velvetleaf; assay: Test C pre-/postemergence herbicide test; assay type: in vivo, Abutilon theophrasti
Procedure, shortened: as §1

[10] = system: rice; assay: Test C flooded paddy test; assay type: in vivo, Oryza sativa
Procedure, shortened: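 Postemergence sprays applied to plants 2 to 18 cm tall (1- to 4-leaf stage); paddy species grown to 2-leaf stage under flooding. After 12 to 14 days in greenhouse, visual rating versus untreated controls on 0–100 scale (0 no effect, 100 complete control).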

[11] = Postemergence, 500 g ai/ha, scale 0 to 100
[12] = Postemergence, 250 g ai/ha, scale 0 to 100, 0 no effect, 100 complete control
[13] = postemergence, 125 g ai/ha, scale 0 to 100
[14] = postemergence, 62 g ai/ha, scale 0 to 100
[15] = Oryza sativa, pre-emergence, 336 h, 125 g ai/ha, 0 = no effect, 100 = complete control

**Q.** Which results are given for `CCCCOC(=O)c1cccc(NC(=O)c2cc(C(C)(C)C)nn2CC)c1` [Compound 86]?
**A.** Plant response rating, Rice ([1]; preemergence, 125 g ai/ha, 0 to 100 scale, 0 is no effect, 100 is complete control): 0; Surinam Grass plant response rating [2, 11]: 85; Plant response rating, Surinam Grass [2, 12]: 70; Plant response rating, Surinam Grass [2, 13]: 60; Plant response rating, Surinam Grass [2, 14]: 10; Crabgrass, Large plant response rating [3, 11]: 40; Plant response rating, Crabgrass, Large [3, 12]: 10; Plant response rating, Crabgrass, Large [3, 14]: 10; Goosegrass plant response rating [4, 11]: 85; Plant response rating, Goosegrass [4, 12]: 80; Plant response rating, Goosegrass [4, 13]: 60; Plant response rating, Goosegrass [4, 14]: 50; Johnsongrass plant response rating [5, 11]: 30; Plant response rating, Johnsongrass [5, 12]: 10; Plant response rating, Johnsongrass [5, 14]: 10; Kochia plant response rating [6, 11]: 95; Plant response rating, Kochia [6, 12]: 95; Plant response rating, Kochia [6, 13]: 85; Plant response rating, Kochia [6, 14]: 80; Pigweed plant response rating [7, 11]: 100; Plant response rating, Pigweed [7, 12]: 100; Plant response rating, Pigweed [7, 13]: 100; Plant response rating, Pigweed [7, 14]: 100; Soybean plant response rating [8, 11]: 95; Plant response rating, Soybean [8, 12]: 90; Plant response rating, Soybean [8, 13]: 70; Plant response rating, Soybean [8, 14]: 45; Velvetleaf plant response rating [9, 11]: 85; Plant response rating, Velvetleaf [9, 12]: 80; Plant response rating, Velvetleaf [9, 13]: 60; Plant response rating, Velvetleaf [9, 14]: 40

**Q.** For `CCc1cn(C(C)(C)C)nc1C(=O)Nc1cccc(C(=O)N(CC)CC)c1` [Compound 168, N-[3-[(diethylamino)carbonyl]phenyl]-1-(1,1-dimethylethyl)-4-ethyl-1H-pyrazole-3-carboxamide], which plant injury at 125 g/ha [1, 15] is on record?
**A.** 0%

**Q.** Which results are given for `C=CCN(C)C(=O)c1cccc(NC(=O)c2cc(C(C)(C)C)nn2CC)c1` [Compound 285]?
**A.** Rice plant response rating (0 to 100 scale) ([1]; 125 g ai/ha, 0 = no effect, 100 = complete control, preemergence): 40; Plant response rating, Rice ([1]; 500 g ai/ha, visual rating, 0 = no effect, 100 = complete control, preemergence): 80; Rice plant response rating ([10]; 62 g ai/ha, scale 0 to 100): 25; Rice plant response rating ([10]; 125 g ai/ha, scale 0 to 100 (0 no effect, 100 complete control)): 40; Rice plant response rating ([10]; 250 g ai/ha, scale of 0 to 100, 0 is no effect, 100 is complete control): 45; Plant response rating, Rice ([10]; 500 g ai/ha, visual rating after 12 to 14 days, scale 0 to 100 (0 no effect, 100 complete control)): 65

**Q.** With `CCn1nc(C(C)(C)C)c(F)c1C(=O)Nc1cc(C(=O)N(C)C)ccc1F` [Compound 276, N-[5-[(dimethylamino)carbonyl]-2-fluorophenyl]-3-(1,1-dimethylethyl)-1-ethyl-4-fluoro-1H-pyrazole-5-carboxamide] as the molecule, how does the plant injury at 125 g/ha [1, 15] read?
**A.** 50%

**Q.** What about the plant injury at 500 g/ha ([1]; Oryza sativa, pre-emergence, 336 h, 500 g ai/ha, visual rating, 0 = no effect, 100 = complete control, read-out: Plant response rating, Rice) of the same molecule?
**A.** 80%

**Q.** And the plant injury at 62 g/ha ([10]; Oryza sativa, 62 g ai/ha, scale 0 to 100, read-out: Rice plant response rating)?
**A.** 0%

**Q.** What about the plant injury at 125 g/ha ([10]; Oryza sativa, 125 g ai/ha, scale 0 to 100 (0 no effect, 100 complete control), read-out: Rice plant response rating) of the same molecule?
**A.** 15%

**Q.** What about the plant injury at 250 g/ha ([10]; Oryza sativa, 250 g ai/ha, scale of 0 to 100, 0 is no effect, 100 is complete control, read-out: Rice plant response rating) of the same molecule?
**A.** 50%

**Q.** What about the plant injury at 500 g/ha ([10]; Oryza sativa, 500 g ai/ha, visual rating after 12 to 14 days, scale 0 to 100 (0 no effect, 100 complete control), read-out: Plant response rating, Rice) of the same molecule?
**A.** 70%
